Assay results from patent publication US8703720B2, “Galactoside inhibitors of galectins” (Galecto Biotech AB, priority 2009, dated 2014).

Experiments:
galectin-3 = galectin-3 (Homo sapiens (Human), UniProt P17931); assay: Fluorescence polarization-based galectin-3 inhibition assay; type: binding; details: calculated from test by fluorescence polarization at the tested conc.
Description: (§1) The known galectin inhibitors galactose and N-acetyllactosamine methyl glycosides were included as reference compounds.
(§2) Identification of the substances was made by HRMS (Micromass Q-tof micro) and NMR (Bruker Ultrashield 400 plus, 400 MHz). Chemical shifts are reported downfield from Me4Si using residual CHD2Cl (7.26 ppm) or CHD2OD (3.35 ppm) as reference. Chemical shifts and coupling constants were obtained from ^1H-NMR and proton resonances were assigned from COSY experiments. Purification was made by RF-HPLC (Beckman, system gold) or flash chromatography, using silica gel (Davisil 35-70 μm, 60 Å). Reactions were followed by TLC (Aluminum sheet, silica gel 60 F254) observed by UV light, H2SO4(aq) or a iso-vanillin/H2SO4/EtOH solution. THF and Et2O were dried over sodium/benzophenone and distilled. CH2Cl2 was dried by molecular sieves (4 Å, 1.6 mm). Other solvents and reagents were commercially available and used without further purifications. Fluorescence polarization experiments were performed on a PolarStar instrument (BMG, Offenburg; Germany). Evaluation of 7, 15-19, and 22 as inhibitors of galectins was performed by use of fluorescence polarization as described in the literature (Sörme et al., 2003a, 2004).

galectin-1 = galectin-1 (Homo sapiens (Human), UniProt P09382); assay: Fluorescence polarization-based galectin-1 inhibition assay; type: binding; details: calculated from test by fluorescence polarization at the tested conc.
Description: as §1, §2

galectins = details: all galectins, cited from earlier work

Sequence of galectin-1 (P09382 whole entry, species assumed): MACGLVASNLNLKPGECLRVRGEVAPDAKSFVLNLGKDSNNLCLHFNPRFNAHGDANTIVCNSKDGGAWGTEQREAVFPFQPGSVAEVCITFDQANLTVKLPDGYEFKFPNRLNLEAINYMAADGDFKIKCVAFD
Sequence of galectin-3 (P17931 whole entry): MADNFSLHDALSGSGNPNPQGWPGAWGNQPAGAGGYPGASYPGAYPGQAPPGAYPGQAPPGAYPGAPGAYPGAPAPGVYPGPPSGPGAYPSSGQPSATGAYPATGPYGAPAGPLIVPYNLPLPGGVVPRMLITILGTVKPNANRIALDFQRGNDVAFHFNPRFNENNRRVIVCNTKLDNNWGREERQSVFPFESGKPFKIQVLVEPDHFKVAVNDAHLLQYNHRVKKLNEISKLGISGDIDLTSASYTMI

| Kd (galectin-3) | Kd (galectin-1) | SMILES | affinity relative to lactose (galectins; compared with lactose) | Kd (galectins) |
| --- | --- | --- | --- | --- |
| 0.43 µM |  | CCCNC(=O)c1cn([C@H]2[C@@H](O)[C@@H](CO)O[C@@H](O[C@@H]3CCC[C@H](n4cc(C(=O)NCCC)nn4)[C@H]3O)[C@@H]2O)nn1 [Compound 7, ((1R,2R,3S)-2-hydroxy-3-(4-(N-(1-propyl)-carbamoyl)-1H-1,2,3-triazol-1-yl)cyclohexyl) 3-deoxy-(3-(4-(N-(1-propyl)-carbamoyl)-1H-1,2,3-triazol-1-yl))-β-D-galactopyranoside] |  |  |
| 0.23 µM | 1.9 µM | OC[C@H]1O[C@@H](S[C@@H]2CCC[C@H](n3cc(-c4ccccc4F)nn3)[C@H]2O)[C@H](O)[C@@H](n2cc(-c3ccccc3F)nn2)[C@H]1O [Compound 15, ((1R,2R,3S)-2-hydroxy-3-(4-(2-fluorophenyl)-1H-1,2,3-triazol-1-yl)-cyclohexyl) 3-deoxy-3-(4-(2-fluorophenyl)-1H-1,2,3-triazol-1-yl)-1-thio-β-D-galactopyranoside] |  |  |
|  | 1.5 µM | OC[C@H]1O[C@@H](S[C@@H]2CCC[C@H](n3cc(-c4cccc(F)c4)nn3)[C@H]2O)[C@H](O)[C@@H](n2cc(-c3cccc(F)c3)nn2)[C@H]1O [Compound 16, ((1R,2R,3S)-2-hydroxy-3-(4-(3-fluorophenyl)-1H-1,2,3-triazol-1-yl)-cyclohexyl) 3-deoxy-3-(4-(3-fluorophenyl)-1H-1,2,3-triazol-1-yl)-1-thio-β-D-galactopyranoside] |  |  |
| 0.21 µM | 1.2 µM | OC[C@H]1O[C@@H](S[C@@H]2CCC[C@H](n3cc(-c4ccc(F)cc4)nn3)[C@H]2O)[C@H](O)[C@@H](n2cc(-c3ccc(F)cc3)nn2)[C@H]1O [Compound 17, ((1R,2R,3S)-2-hydroxy-3-(4-(4-fluorophenyl)-1H-1,2,3-triazol-1-yl)-cyclohexyl) 3-deoxy-3-(4-(4-fluorophenyl)-1H-1,2,3-triazol-1-yl)-1-thio-β-D-galactopyranoside] |  |  |
| 0.55 µM | 0.35 µM | OC[C@H]1O[C@@H](S[C@@H]2CCC[C@H](n3cc(-c4ccsc4)nn3)[C@H]2O)[C@H](O)[C@@H](n2cc(-c3ccsc3)nn2)[C@H]1O [Compound 18, ((1R,2R,3S)-2-hydroxy-3-(4-(3-thiopheneyl)-1H-1,2,3-triazol-1-yl)-cyclohexyl) 3-deoxy-3-(4-(3-thienyl)-1H-1,2,3-triazol-1-yl)-1-thio-β-D-galactopyranoside] |  |  |
| 0.19 µM | 1.3 µM | CCCNC(=O)c1cn(C2CCC[C@@H](S[C@@H]3OC(CO)[C@H](O)[C@H](n4cc(C(=O)NCCC)nn4)C3O)C2O)nn1 (stereo partly drawn) [Compound 19, ((1R,2R,3S)-2-hydroxy-3-(4-(propylcarbamoyl)-1H-1,2,3-triazol-1-yl)-cyclohexyl)-3-deoxy-3-(4-(propylcarbamoyl)-1H-1,2,3-triazol-1-yl)-thio-β-D-galactopyranoside] |  |  |
| 1.4 µM | 6.3 µM | O=C(NC1CCC[C@@H](S[C@@H]2OC(CO)[C@H](O)[C@H](NC(=O)c3ccc(Cl)cc3)C2O)C1O)c1ccc(Cl)cc1 (stereo partly drawn) [Compound 23, ((1R,2R,3S)-2-hydroxy-3-(4-chlorobenzamido)-cyclohexyl)-3-deoxy-3-(4-chlorobenzamido)-thio-β-D-galactopyranoside] |  |  |
|  |  | O=C[C@H](O)[C@@H](O)[C@@H](O)[C@H](O)CO [D-galactose] | 50-100 times lower |  |
|  |  | OC[C@H]1O[C@@H](O[C@H]2[C@H](O)[C@@H](O)C(O)O[C@@H]2CO)[C@H](O)[C@@H](O)[C@H]1O (some centres unmarked) [lactose] |  | 500 to 1000 µM |
